# Experimental data: patent US20030224942A1, “Alkylamino-1,3,5-triazines, processes for their preparation and their use as herbicides and plant growth regulators” (priority 2001, published 2003)
# Experiments:
# [1] = test system: Chenopodium spp., Papaver spp., Polygonum spp., Veronica spp. or Viola spp.; assay: Post-emergence effect on weeds (greenhouse pot test, visual scoring); assay type: in vivo, monocotyledonous and dicotyledonous weeds; conditions: treated at three-leaf stage; visual scoring after about 3 to 4 weeks; application rate of 0.5 kg and less of active substance per hectare
# [2] = test system: Cyperus spp., Echinochloa spp., Digitaria spp., Sagitaria spp. and Scirpus spp.; assay: Action on harmful plants in rice (paddy rice conditions, visual scoring); assay type: in vivo, typical rice weeds (gramineous and broad-leaved); conditions: applied into the dammed water, visual scoring about three weeks after application
# From the text: Transplanted and sown rice and also typical rice weeds (gramineous and broad-leaved) are cultivated in closed plastic pots in a greenhouse to the three-leaf stage (Echinochloa crus-galli 1.5-leaf) under paddy rice conditions (dammed height of water: 2-3 cm). This is followed by treatment with the compounds according to the invention. […] After this treatment, the test plants are set up in a greenhouse under optimum growth conditions and are maintained in this way throughout the test period.
Compound,herbicidal activity post-emergence against harmful plants [1],herbicidal activity against harmful plants which are typical for rice crops [2]
C#Cc1ccc(C(Nc2nc(C)nc(N)n2)C2CC2)cc1 (stereo not shown) [Product P4.1580],very good herbicidal activity,very good herbicidal activity
CC#Cc1cccc(C(Nc2nc(N)nc(C(C)C)n2)C2CC2)c1 (stereo not shown) [Product P14.1582],very good herbicidal activity,very good herbicidal activity
CC(F)C#Cc1ccc(C(C)Nc2nc(N)nc(C(C)(C)F)n2)cc1 (stereo not shown) [Product P17.1598],very good herbicidal activity,very good herbicidal activity
CC(F)c1nc(N)nc(NC(c2ccc(C3CC3)cc2)C2CC2)n1 (stereo not shown) [Product P24.1604],very good herbicidal activity,very good herbicidal activity
CC(F)c1nc(N)nc(NC(C)c2cccc(C3CC3)c2)n1 (stereo not shown) [Product P22.1603],very good herbicidal activity,very good herbicidal activity
C#Cc1ccc(CNc2nc(N)nc(C(C)C)n2)cc1 [Product P11.1580],very good herbicidal activity,very good herbicidal activity
C#Cc1c(F)cc(CNc2nc(N)nc(CC)n2)cc1F [Product P6.352],very good herbicidal activity,very good herbicidal activity
CC(C)c1nc(N)nc(NC(C)c2cccc(C(F)=C(F)F)c2)n1 (stereo not shown) [Product P12.1567],very good herbicidal activity,very good herbicidal activity
CCC(F)c1nc(N)nc(NC(C)c2cccc(C#CC(C)O)c2)n1 (stereo not shown) [Product P27.1600],very good herbicidal activity,very good herbicidal activity
CC(F)c1nc(N)nc(NC(C)c2ccc(F)c(C(F)=C(F)F)c2)n1 (stereo not shown) [Product P22.5],very good herbicidal activity,very good herbicidal activity
C#Cc1cc(C(C)Nc2nc(N)nc(C(F)CC)n2)ccc1F (stereo not shown) [Product P27.309],very good herbicidal activity,very good herbicidal activity
CC(F)c1nc(N)nc(NC(C)c2ccc(C(F)=C(F)F)cc2)n1 (stereo not shown) [Product P22.1568],very good herbicidal activity,very good herbicidal activity
CCC(F)c1nc(N)nc(NCc2cc(F)c(C3CC3)c(F)c2)n1 (stereo not shown) [Product P26.960],very good herbicidal activity,very good herbicidal activity
CC(C)c1nc(N)nc(NC(C)c2ccc(C3CC3)cc2)n1 (stereo not shown) [Product P12.1604],very good herbicidal activity,very good herbicidal activity
CCc1nc(N)nc(NCc2cc(F)c(C3CC3)c(F)c2)n1 [Product P6.960],very good herbicidal activity,very good herbicidal activity
CC(F)C#Cc1cccc(C(C)Nc2nc(N)nc(C(C)(C)F)n2)c1 (stereo not shown) [Product P17.1597],very good herbicidal activity,very good herbicidal activity
C#Cc1c(C)cc(C(C)Nc2nc(N)nc(CC)n2)cc1C (stereo not shown) [Product P7.348],very good herbicidal activity,very good herbicidal activity
CC#Cc1cc(C(Nc2nc(N)nc(C(C)(C)F)n2)C2CC2)ccc1F (stereo not shown) [Product P19.384],very good herbicidal activity,very good herbicidal activity
CCc1nc(N)nc(NC(c2ccc(C(F)=C(F)F)cc2)C2CC2)n1 (stereo not shown) [Product P9.1568],very good herbicidal activity,very good herbicidal activity
CC(C)c1nc(N)nc(NCc2cccc(C(F)=C(F)F)c2)n1 [Product P11.1567],very good herbicidal activity,very good herbicidal activity
C#Cc1cccc(C(C)Nc2nc(N)nc(C(C)(C)F)n2)c1 (stereo not shown) [Product P17.1579],very good herbicidal activity,very good herbicidal activity

Compound,herbicidal activity post-emergence against harmful plants [1],herbicidal activity against harmful plants which are typical for rice crops [2]
C#Cc1ccc(C(C)Nc2nc(N)nc(C(C)(C)F)n2)cc1 (stereo not shown) [Product P17.1580],very good herbicidal activity,very good herbicidal activity
CC(C)c1nc(N)nc(NC(c2cccc(C3CC3)c2)C2CC2)n1 (stereo not shown) [Product P14.1603],very good herbicidal activity,very good herbicidal activity
C#Cc1cccc(C(C)Nc2nc(C)nc(N)n2)c1 (stereo not shown) [Product P2.1579],very good herbicidal activity,very good herbicidal activity
C#Cc1cc(C(C)Nc2nc(N)nc(C(C)(C)F)n2)ccc1F (stereo not shown) [Product P17.309],very good herbicidal activity,very good herbicidal activity
CC#Cc1cccc(CNc2nc(N)nc(C(C)F)n2)c1 (stereo not shown) [Product P21.1582],very good herbicidal activity,very good herbicidal activity
CC(C)(F)c1nc(N)nc(NCc2ccc(C(F)=C(F)F)cc2)n1 [Product P16.1568],very good herbicidal activity,very good herbicidal activity
CC#Cc1c(F)cc(C(Nc2nc(N)nc(C(F)CC)n2)C2CC2)cc1F (stereo not shown) [Product P29.428],very good herbicidal activity,very good herbicidal activity
CC(Nc1nc(N)nc(C(C)(C)F)n1)c1ccc(F)c(C2CC2)c1 (stereo not shown) [Product P17.916],very good herbicidal activity,very good herbicidal activity
CC#Cc1cccc(C(Nc2nc(N)nc(CC)n2)C2CC2)c1 (stereo not shown) [Product P9.1582],very good herbicidal activity,very good herbicidal activity
CCCCC#Cc1c(C)cc(C(C)Nc2nc(N)nc(C(C)(C)F)n2)cc1C (stereo not shown) [Product P17.728],very good herbicidal activity,very good herbicidal activity
CC#Cc1ccc(C(C)Nc2nc(N)nc(C(C)(C)F)n2)cc1 (stereo not shown) [Product P17.1583],very good herbicidal activity,very good herbicidal activity
C#Cc1cccc(C(Nc2nc(N)nc(C(C)F)n2)C2CC2)c1 (stereo not shown) [Product P24.1579],very good herbicidal activity,very good herbicidal activity
Cc1nc(N)nc(NCc2ccc(C3CC3)cc2)n1 [Product P1.1604],very good herbicidal activity,very good herbicidal activity
C#Cc1ccc(C(C)Nc2nc(N)nc(C(C)F)n2)cc1 (stereo not shown) [Product P22.1580],very good herbicidal activity,very good herbicidal activity
C#Cc1cccc(C(Nc2nc(N)nc(C(F)CC)n2)C2CC2)c1 (stereo not shown) [Product P29.1579],very good herbicidal activity,very good herbicidal activity
CC(O)C#Cc1ccc(C(C)Nc2nc(N)nc(C(C)F)n2)cc1 (stereo not shown) [Product P22.1601],very good herbicidal activity,very good herbicidal activity
CC(C)(F)c1nc(N)nc(NCc2cc(F)c(C3CC3)c(F)c2)n1 [Product P16.960],very good herbicidal activity,very good herbicidal activity
CC#Cc1c(F)cc(C(Nc2nc(N)nc(C(C)C)n2)C2CC2)cc1F (stereo not shown) [Product P14.428],very good herbicidal activity,very good herbicidal activity
CC(Nc1nc(N)nc(C(C)(C)F)n1)c1cccc(C2CC2)c1 (stereo not shown) [Product P17.1603],very good herbicidal activity,very good herbicidal activity
C#Cc1c(F)cc(C(Nc2nc(N)nc(CC)n2)C2CC2)cc1F (stereo not shown) [Product P9.352],very good herbicidal activity,very good herbicidal activity
